Data: patent US12030876B2, “Aryl hydrocarbon receptor (AHR) agonists and uses thereof” (Ikena Oncology, Inc., priority 2019, dated 2024)
pEC50: −log10 of the molar value. Like-named read-outs stand apart in the source and are kept apart here.

Assays:
[1] = target: T1, AHR (Homo sapiens, UniProt P35869); assay: DRE-Luciferase Reporter Assay, HepG2 (agonist); format: cell-based; conditions: read-out: DRE-Luc HepG2 - Agonist: Average EC50
T1 construct: endogenous in cells; host or cells: HepG2 (human), transfected with a DRE-luciferase reporter only
T1 sequence (P35869 11-848): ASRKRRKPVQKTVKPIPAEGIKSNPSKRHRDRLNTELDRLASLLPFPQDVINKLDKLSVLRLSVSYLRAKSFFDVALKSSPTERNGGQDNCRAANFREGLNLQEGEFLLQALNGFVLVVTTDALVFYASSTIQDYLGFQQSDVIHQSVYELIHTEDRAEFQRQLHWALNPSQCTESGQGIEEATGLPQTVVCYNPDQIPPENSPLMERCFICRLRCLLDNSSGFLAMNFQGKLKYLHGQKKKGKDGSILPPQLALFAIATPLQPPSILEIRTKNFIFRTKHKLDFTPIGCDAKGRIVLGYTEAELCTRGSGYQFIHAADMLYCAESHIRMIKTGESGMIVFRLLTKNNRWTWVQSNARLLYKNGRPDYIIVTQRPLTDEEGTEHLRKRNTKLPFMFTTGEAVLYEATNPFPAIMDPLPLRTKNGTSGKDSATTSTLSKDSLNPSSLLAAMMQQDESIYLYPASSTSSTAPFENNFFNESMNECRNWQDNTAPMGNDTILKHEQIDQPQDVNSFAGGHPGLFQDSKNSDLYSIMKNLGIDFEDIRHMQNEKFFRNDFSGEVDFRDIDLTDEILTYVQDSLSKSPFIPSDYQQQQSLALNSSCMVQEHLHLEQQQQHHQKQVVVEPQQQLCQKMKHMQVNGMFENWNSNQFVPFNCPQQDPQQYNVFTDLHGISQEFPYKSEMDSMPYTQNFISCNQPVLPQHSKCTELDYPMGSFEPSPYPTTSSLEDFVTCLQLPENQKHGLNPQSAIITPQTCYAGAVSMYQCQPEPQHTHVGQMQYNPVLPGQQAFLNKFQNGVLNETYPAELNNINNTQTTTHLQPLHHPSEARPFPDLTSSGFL
Procedure, shortened: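 Cells carrying a stably or transiently transfected DRE-luciferase reporter, plated overnight at 37 C, then given agonist for 6, 16 or 24 h before lysis and luciferase read-out. Signal scaled between no ligand (minimum) and activating ligand alone, e.g. TCDD (maximum); EC50 = concentration giving half-maximal luciferase activity.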

[2] = target: T2, AHR (Mus musculus, UniProt P30561); assay: P450 CYP1A1 Luciferase Assay, Hepa1.6 (agonist); format: cell-based, murine; conditions: Hepa1.6, Table 2
T2 sequence (P30561 1-848 F348L/P471L): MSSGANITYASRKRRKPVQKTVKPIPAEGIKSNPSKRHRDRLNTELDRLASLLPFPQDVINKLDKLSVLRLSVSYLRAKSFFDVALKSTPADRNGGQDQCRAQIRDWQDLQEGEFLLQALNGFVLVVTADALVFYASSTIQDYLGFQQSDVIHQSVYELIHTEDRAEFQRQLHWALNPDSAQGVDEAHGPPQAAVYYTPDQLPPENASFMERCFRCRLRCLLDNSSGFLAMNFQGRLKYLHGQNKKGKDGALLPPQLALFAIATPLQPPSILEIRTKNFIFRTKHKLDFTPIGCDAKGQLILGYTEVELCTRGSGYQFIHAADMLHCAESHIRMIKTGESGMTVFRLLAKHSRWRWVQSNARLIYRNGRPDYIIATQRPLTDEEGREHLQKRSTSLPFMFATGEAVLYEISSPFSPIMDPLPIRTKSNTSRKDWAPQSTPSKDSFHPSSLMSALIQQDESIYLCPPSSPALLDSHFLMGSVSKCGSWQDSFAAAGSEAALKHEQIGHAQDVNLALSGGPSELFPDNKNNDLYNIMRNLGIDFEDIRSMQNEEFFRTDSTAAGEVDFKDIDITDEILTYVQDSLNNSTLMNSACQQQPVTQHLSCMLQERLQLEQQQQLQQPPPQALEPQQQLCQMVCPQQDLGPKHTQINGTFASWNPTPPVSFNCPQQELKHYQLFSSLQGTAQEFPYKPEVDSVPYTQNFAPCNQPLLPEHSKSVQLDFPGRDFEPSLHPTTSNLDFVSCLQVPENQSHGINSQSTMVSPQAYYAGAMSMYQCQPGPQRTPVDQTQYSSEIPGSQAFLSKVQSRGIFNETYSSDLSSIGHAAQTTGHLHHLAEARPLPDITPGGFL
Protocol: P450 CYP1A1 Luciferase Assay
AHR binds to Dioxin Responsive Elements (DRE) upstream of genes that it activates. One measure of AHR activity is P450 CYP1A1 protein levels determined by measuring CYP1A1 enzyme activity using a luminogenic CYP1A1 luciferin-based substrate. Luciferase activity will reflect CYP1A1 activity resulting from activation of AHR in the cells.
Murine Hepa1-6 or Hepa-1c1c7 or other murine cell line, human HepG2 or other human cell line are plated in media (96-well, 384-well or other plates) and incubated overnight at 37 C in a CO2 incubator.
(§1) The next day, an AHR agonist compound is added. Cells are incubated for 6, 16 or 24 hours or another time point and then lysed and incubated with a CYP1A1 luciferase-based substrate (e.g. Luciferin-CEE) for 3, 6, or 12 hours of another time point. Determination of luciferase activity as a read-out of CYP1A1 enzyme activity can be measured with a commercial kit such as the Promega P450 Glo CYP1A1 detection reagent or any kit or reagents that provide for measuring luciferase activity. The level of luciferase with only activating ligand (e.g. such as TCDD, kynurenine, ITE (2-(1H-indole-3-ylcarbonyl)-4-thiazolecarboxylic methyl ester), VAF347, BNF (beta-naphthoflavone), ICZ (6-formylindolo(3,2-b) carbazole or other AHR ligands) added is the maximum signal while the luciferase with no ligand is the minimum signal. EC50s can be determined as the concentration which activates half of the maximum luciferase activity.

[3] = target: T2, AHR; assay: DRE-Luciferase Reporter Assay, Hepa1.6 (agonist); format: cell-based, murine; conditions: Hepa1.6, Table 3; read-out: DRE-Luc Hepa1.6 - Agonist: Average EC50
Protocol: DRE-Luciferase Reporter Assay
AHR binds to Dioxin Responsive Elements (DRE) upstream of genes that it activates. One measure of AHR activity is activation of a reporter gene, such as luciferase, downstream of one or multiple DRE elements. Luciferase activity reflects activation and inhibition of AHR in the cells expressing this reporter.
Murine Hepa1-6 or Hepa-1c1c7 or other murine cell line with a DRE-luciferase reporter either stably or transiently transfected are plated in media in plates (96-well, 384-well or other plates) and incubated overnight at 37 C in a CO2 incubator. Likewise, human HepG2 or other human cell line with a DRE-luciferase reporter either stably or transiently transfected are plated in media in plates (96-well, 384-well or other plates) and incubated overnight at 37 C in a CO2 incubator.
as §1, with “lysed” for “lysed and incubated with a CYP1A1 luciferase-based substrate (e.g. Luciferin-CEE)”, “determination” for “3, 6, or 12 hours of another time point. Determination”, “the AHR activation. Luciferase” for “CYP1A1 enzyme activity”, “Luciferase kit” for “P450 Glo CYP1A1 detection reagent”, “provide the luciferin substrate” for “provide”

pEC50 ([1]; HepG2, Table 2) | pEC50 [2] | pEC50 ([1]; HepG2, Table 3) | pEC50 [3] | Compound
< 6.00 | < 6.00 |  |  | C[N+]1(C)CCN(C(=O)c2cccc(-c3csc(Nc4cccc(C(F)(F)F)c4)n3)c2)CC1 [I-53]
> 8.00 | < 6.00 |  |  | FC(F)(F)c1cccc(Nc2nc(-c3cccc(Cl)c3)ns2)c1 [I-58]
> 8.00 | < 6.00 |  |  | FC(F)(F)c1cccc(Nc2ncc(-c3cccc(Cl)c3)o2)c1 [I-59]
7.00 to 8.00 | < 6.00 |  |  | FC(F)(F)c1cccc(Nc2cc(-c3cccc(Cl)c3)cs2)c1 [I-60]
6.00 to 7.00 | < 6.00 |  |  | FC(F)(F)c1cccc(Nc2cc(-c3cccc(Cl)c3)cs2)c1 [I-61]
 |  | > 8.00 | 6.00 to 7.00 | O=c1ccc(-c2csc(Nc3cccc(C(F)(F)F)c3)n2)c[nH]1 [I-83]
 |  | > 8.00 | < 6.00 | N#Cc1cncc(-c2csc(Nc3cccc(C(F)(F)F)c3)n2)c1 [I-87]
 |  | > 8.00 | < 6.00 | O=[N+]([O-])c1cccc(-c2csc(Nc3cccc(C(F)(F)F)n3)n2)c1 [I-89]
 |  | > 8.00 | < 6.00 | N#Cc1cccc(-c2csc(Nc3cccc(C(F)(F)F)n3)n2)c1 [I-90]
 |  | > 8.00 | 7.00 to 8.00 | FC(F)(F)c1cccc(Nc2nc(-c3cncc(Cl)c3)cs2)c1 [I-91]
 |  | > 8.00 | 6.00 to 7.00 | C[n+]1cccc(-c2csc(Nc3cccc(C(F)(F)F)c3)n2)c1 [I-92]
 |  | > 8.00 | < 6.00 | O=c1cc(-c2csc(Nc3cccc(C(F)(F)F)c3)n2)cc[nH]1 [I-93]
 |  | > 8.00 | 7.00 to 8.00 | N#Cc1cccc(-c2csc(Nc3cncc(C(F)(F)F)c3)n2)c1 [I-97]
 |  | > 8.00 | < 6.00 | N#Cc1cc(-c2csc(Nc3cccc(C(F)(F)F)c3)n2)c[n+]([O-])c1 [I-100]
 |  | > 8.00 | < 6.00 | [O-][n+]1cc(Cl)cc(-c2csc(Nc3cccc(C(F)(F)F)c3)n2)c1 [I-107]
 |  | > 8.00 | < 6.00 | N#Cc1cccc(-c2nsc(Nc3cccc(C(F)(F)F)c3)n2)c1 [I-109]
 |  | > 8.00 | < 6.00 | N#Cc1cccc(-c2cnc(Nc3cccc(C(F)(F)F)c3)o2)c1 [I-112]
 |  | > 8.00 | < 6.00 | [O-][n+]1cccc(-c2nsc(Nc3cccc(C(F)(F)F)c3)n2)c1 [I-117]
 |  | > 8.00 | 6.00 to 7.00 | O=[N+]([O-])c1cc(-c2csc(Nc3cccc(C(F)(F)F)c3)n2)c[n+]([O-])c1 [I-120]

pEC50 ([1]; HepG2, Table 2) | pEC50 [2] | pEC50 ([1]; HepG2, Table 3) | pEC50 [3] | Compound
 |  | > 8.00 | < 6.00 | [O-][n+]1cccc(-c2csc(Nc3cccc(C(F)(F)F)n3)n2)c1 [I-121]
 |  | 7.00 to 8.00 | < 6.00 | OCc1cccc(-c2csc(Nc3cccc(C(F)(F)F)c3)n2)c1 [I-125]
 |  | > 8.00 | < 6.00 | O=c1cc(-c2nsc(Nc3cccc(C(F)(F)F)c3)n2)cc[nH]1 [I-128]
 |  | > 8.00 | > 8.00 | O=c1cccc(-c2csc(Nc3cccc(C(F)(F)F)c3)n2)[nH]1 [I-130]
 |  | > 8.00 | 6.00 to 7.00 | CSc1cccc(Nc2nc(-c3cccc([N+](=O)[O-])c3)cs2)c1 [I-136]
 |  | 6.00 to 7.00 | < 6.00 | COc1cc(-n2cnc(Nc3cccc(C(F)(F)F)c3)n2)ccn1 [I-143]
 |  | 7.00 to 8.00 | < 6.00 | O=c1cc(-n2cnc(Nc3cccc(C(F)(F)F)c3)n2)cc[nH]1 [I-144]
 |  | > 8.00 | < 6.00 | N#Cc1cccc(-n2cnc(Nc3cccc(C(F)(F)F)c3)n2)c1 [I-145]
 |  | > 8.00 | < 6.00 | C[N+](C)(C)CCNC(=O)N(c1cccc(C(F)(F)F)c1)c1nc(-c2cc[nH]c(=O)c2)cs1 [I-146]
 |  | 6.00 to 7.00 | < 6.00 | NC(=O)c1cccc(Nc2nc(-c3ccc[n+]([O-])c3)cs2)c1 [I-147]
 |  | 6.00 to 7.00 | 6.00 to 7.00 | C[N+](C)(C)CCOc1cc(-c2csc(Nc3cccc(C(F)(F)F)c3)n2)ccn1 [I-149]
 |  | < 6.00 | < 6.00 | N#Cc1cccc(-c2nc(Nc3cccc(C(F)(F)F)c3)no2)c1 [I-152]
 |  | 7.00 to 8.00 | < 6.00 | CN(C)c1cc(-c2csc(Nc3cccc(C(F)(F)F)c3)n2)ccn1 [I-153]
 |  | > 8.00 | 7.00 to 8.00 | CNc1cc(-c2csc(Nc3cccc(C(F)(F)F)c3)n2)ccn1 [I-154]
 |  | 7.00 to 8.00 | < 6.00 | CCCOc1cc(-c2csc(Nc3cccc(C(F)(F)F)c3)n2)ccn1 [I-155]
 |  | > 8.00 | > 8.00 | Nc1cc(-c2csc(Nc3cccc(C(F)(F)F)c3)n2)ccn1 [I-156]
 |  | 6.00 to 7.00 | < 6.00 | N#Cc1cccc(-c2noc(Nc3cccc(C(F)(F)F)c3)n2)c1 [I-157]
 |  | 7.00 to 8.00 | < 6.00 | [O-][n+]1cccc(-n2cnc(Nc3cccc(C(F)(F)F)c3)n2)c1 [I-158]

Compound | pEC50 ([1]; HepG2, Table 2) | pEC50 [2] | pEC50 ([1]; HepG2, Table 3) | pEC50 [3]
C[N+](C)(CCNC(=O)N(c1cccc(C(F)(F)F)c1)c1nc(-c2cccc([N+](=O)[O-])c2)cs1)CCNC(=O)N(c1cccc(C(F)(F)F)c1)c1nc(-c2cccc([N+](=O)[O-])c2)cs1 [I-148] |  |  | 7.00 to 8.00 | 6.00 to 7.00
